# Experimental data from patent US20240122893A1 (priority 2021, published 2024).
# Where a name gives a salt, the structure may show the parent alone. Read-outs that look alike come from different tables or passages of the source.
# Key:
# [1] = system: SARS-CoV-2; settings: treatment of cells with NRF2 agonists; cited from earlier work
# [2] = system: HCoV-OC43; test: microbe, parasite or virus in culture; assay type: cell-based, Human coronavirus OC43
# [3] = system: Vero C1008 cells
# [4] = system: SARS-CoV-2; test: CPE inhibition assay, SARS-CoV-2 strains in Vero C1008 cells; assay type: cell-based
# [5] = system: SARS-CoV-2; test: organism not typed; settings: Caco-2, read-out: IC50, reduction of viral RNA
# Description: vRNA determination: Zymo Quick-RNA Viral 96 Kit (Zymo Research) was used to isolate RNA from cell supematants according to the manufacturer's protocol. cDNA synthesis was performed using qScript cDNA Supermix containing randomhexamers and oligo-dT primers following the manufacture's protocol (Quanta Biosciences). Real-time PCR was performed in technical triplicate for each sample using TaqMan Fast Advanced Master Mix (Applied Biosystems) on a StepOne Plus Real Time PCR machine (Applied Biosystems). […] The cycling parameters were as follows: (i) 2 min at 50° C.; (ii) 2 min at 95° C.; and (iii) 45 cycles at 95° C. for 3s and 55° C. for 30 s. Molecular standard curves were generated using serial dilutions of a plasmid containing the complete SARS-CoV-2N gene (Integrated DNA Technologies, Catalog #10006625).
# Viral RNA determination. Zymo Quick-RNA Viral 96 Kit (Zymo Research) was used to isolate RNA from cell supematants according to the manufacturer's protocol. cDNA synthesis was performed using qScript cDNA Supermix containing random hexamers and oligo-dT primers following the manufacture's protocol (Quanta Biosciences). Real-time quantitative reverse transcription
# PCR (RT-qPCR) was performed in technical triplicate for each sample using TaqMan Fast Advanced Master Mix (Applied Biosystems) on a StepOne Plus Real Time PCR machine (Applied Biosystems). […]
# [6] = system: HCoV-OC43; test: microbe, parasite or virus in culture; settings: Betacoronavirus 1, OC43, MRC5, read-out: IC50, median inhibitory concentration
# [7] = cited from earlier work
# [8] = system: MRC-5 cells; settings: human
# [9] = system: SARS-CoV-2/USA/WI1/2020; settings: for protein concentration in bronchoalveolar lavage (BAL), measure of lung injury: 6 days post-infection; for SARS-CoV-2 spike protein distribution in the lungs: vs infected untreated animals
# [10] = system: SARS-CoV-2/USA/WI1/2020
# Description: Flow cytometry: Lungs were minced and incubated at 37° C. in an enzyme cocktail of RPMI containing 2.4 mg/ml collagenase I and 20 μg/ml DNase (Invitrogen), then mashed through a 70-μm nylon cell strainer (BD Falcon). […] For analysis immediately ex vivo, cells were washed once in PBS and immediately stained for viability with Biolegend Live/Dead Zombie NIR Fixable Viability Dye and Fc Block for 10 min at room temperature. Cell surface staining was performed in 100 uL of 20% BD Horizon™ Brilliant Stain Buffer+ PBS with surface stain antibody cocktail for 20 min at room temperature. Cells were fixed and permeabilized with eBioscience™ FoxP3/Transcription Factor Staining kit 1× Fixation/Permeabilization reagent overnight at 4° C. Cells were washed with 1× Permeabilization/Wash buffer. Intracellular staining (ICS) was performed in 100 uL 1× Permeabilization/Wash buffer with ICS antibody cocktail for 45 min at room temperature. Cells were washed once with Permeabilization/Wash buffer then resuspended in Permeabilization/Wash buffer for acquisition by flow. Samples were run on a 3 laser Cytek Aurora spectral flow cytometer. FCS files were analyzed using Flowjo v10 (10.6.2.) software.
# Flow cytometry. Lungs were minced and incubated at 37° C. in an enzyme cocktail of RPMI containing 2.4 mg/mi collagenase I and 20 μg/ml DNase (Invitrogen), then mashed through a 70-μm nylon cell strainer (BD Falcon). […] For analysis immediately ex vivo, cells were washed once in PBS and immediately stained for viability with Biolegend Live/Dead Zombie NIR Fixable Viability Dye and Fc Block for 10 min at room temperature. Cell surface staining was performed in 100 μL of 20% BD Horizon™ Brilliant Stain Buffer+ PBS with surface stain antibody cocktail for 20 min at room temperature. Cells were fixed and permeabilized with eBioscience™ FoxP3/Transcription Factor Staining kit 1× Fixation/Permeabilization reagent overnight at 4° C. Cells were washed with 1× Permeabilization/Wash buffer. Intracellular staining (ICS) was performed in 100 μL 1× Permeabilization/Wash buffer with ICS antibody cocktail for 45 min at room temperature. Cells were washed once with Permeabilization/Wash buffer then resuspended in Permeabilization/Wash buffer for acquisition by flow. […] For the myeloid flow cytometry functional staining, the cells were incubated with protein transport inhibitors for 4 h. Samples were run on a 3 laser Cytek Aurora spectral flow cytometer or a FACSAria II spectral flow cytometer (BD). FCS files were analyzed using Flowjo v10.6.2 software (BD). […] High-dimensional unbiased analysis of cell phenotypes was performed using Flowjo plugins DownSample v3 and UMAP.
# [11] = 30 mg/kg daily oral gavage, vs untreated infected controls
# [12] = after PMA/ionomycin stimulation
smiles,measurement,setting,value
C=C(CC(=O)OCCCCCCCC)C(=O)O [4-octyl-itaconate],replication of SARS-CoV-2 in vitro,[1],inhibited replication
"CCC(CC)COC(=O)[C@H](C)N[P@](=O)(OC[C@H]1O[C@@](C#N)(c2ccc3c(N)ncnn23)[C@H](O)[C@@H]1O)Oc1ccccc1 [RDV, remdesivir, reference compound]",IC50,"[2]; Betacoronavirus 1, OC43, Vero C1008, drug added 1-2 h before virus, read-out: IC50, median inhibitory concentration",22 µM
same,"TD50, median cytotoxic dose","[3]; Vero C1008, drug added 1-2 h before virus (HCoV-OC43 assay)",142 µM
same,IC50,"[4]; Severe acute respiratory syndrome coronavirus 2, Vero C1008, SARS-CoV-2, FIG. 2E, Vero C1008, drug 1 h before virus, read-out: IC50",4 µM
same,IC50,"[4]; Severe acute respiratory syndrome coronavirus 2, Vero C1008, four strains of SARS-CoV-2 (Example 1), read-out: IC50",4 to 9 µM
"C[S+]([O-])CCCCN=C=S (centres unmarked) [SFN, sulforaphane]",IC50,[5],2.4 µM
same,IC50,"[2]; Betacoronavirus 1, OC43, Vero C1008, 24 h, Vero C1008, established infection, drug added 24 h after virus, read-out: IC50, median inhibitory concentration",18 µM
same,IC50,"[2]; Betacoronavirus 1, OC43, Vero C1008, Vero C1008, drug 24 h before virus, drug washed out and then virus added, read-out: IC50, median inhibitory concentration",21 µM
same,IC50,"[2]; Betacoronavirus 1, OC43, Vero C1008, read-out: IC50, median inhibitory concentration, Vero C1008, drug added 1-2 h before virus",10 µM
same,"TD50, median cytotoxic dose, range over assays","[3]; African green monkey, human",73 to 89 µM
same,IC50,[6],18 µM
same,IC50,[4]; 614G+ clinical strain USA/DCHP-7/2020 (DC),29 µM
same,IC50,[4]; 614G+ clinical strain USA/MDHP-20/2020 (MD),28 µM
same,IC50,"[4]; Severe acute respiratory syndrome coronavirus 2, Vero C1008, 614G+ clinical strain USA/DCHP-7/2020 (DC)",51 µM
same,IC50,"[4]; Severe acute respiratory syndrome coronavirus 2, Vero C1008, 614G+ clinical strain USA/MDHP-20/2020 (MD)",48 µM
same,IC50,"[4]; Severe acute respiratory syndrome coronavirus 2, Vero C1008, 24 h, SARS-CoV-2-Wuhan-Hu-1, established infection, drug added 24 h after virus, read-out: IC50, median inhibitory concentration",13 µM
same,IC50,"[4]; Severe acute respiratory syndrome coronavirus 2, Vero C1008, both reference strains, Wuhan-Hu-1 and USA-WA1/2020 (Example 1)",15 to 17 µM
same,IC50,"[4]; Severe acute respiratory syndrome coronavirus 2, Vero C1008, read-out: IC50, median inhibitory concentration, SARS-CoV-2-Wuhan-Hu-1, Vero C1008, drug 1-2 h before virus",12 µM
same,IC50,"[4]; Severe acute respiratory syndrome coronavirus 2, Vero C1008, reference strain USA-WA1/2020, drug 1 h before virus (Example 2)",31 µM
same,tolerability,[7]; SFN-rich broccoli sprouts corresponding to 50 to 400 μmol SFN daily,well tolerated without clinically significant adverse effects
same,elimination from plasma,[7]; in vivo,rapidly eliminated from plasma
same,"TD50, median cytotoxic dose",[8],83 µM
same,"bodyweight loss, less than infected untreated controls","[9]; 30 mg/kg daily oral gavage from one day before inoculation, day 6 post inoculation",7.5%
same,"protein concentration in bronchoalveolar lavage (BAL), measure of lung injury",[9]; [11],significantly lower
same,"protein concentration in bronchoalveolar lavage (BAL), measure of lung injury","[9]; 30 mg/kg daily oral gavage, vs untreated infected controls, listed as sulforaphane",lower
same,"reduction in lung viral load, total SARS-CoV-2 N protein copies, not normalized to Pol2Ra","[9]; 30 mg/kg daily oral gavage, P=0.1308",1.46 log
same,weight loss compared to controls,"[9]; 30 mg/kg daily oral gavage, day 6 post inoculation",lost significantly less weight
same,"reduction in lung viral load, SARS-CoV-2 N protein copies normalized to Pol2Ra","[9]; 30 mg/kg daily oral gavage, vs infected untreated controls",1.5 log
same,viral burden in BAL / alveolar fluid (qPCR),[9]; [11],significantly lower
same,histopathology score of lung inflammation,"[9]; 30 mg/kg daily, untreated controls 6/16",1/16
same,"lung viral load, treated vs controls (Example 1)",[9]; daily oral gavage from one day before inoculation,no statistically significant differences
same,reduction of viral replication in the lungs,[9]; prophylactic SFN treatment,1.5 orders of magnitude
same,SARS-CoV-2 spike protein distribution in the lungs,[9],focal distribution
same,SARS-CoV-2 spike protein distribution in the lungs,[9]; listed as sulforaphane,smaller area
same,pulmonary pathology (H&E lung sections),[9]; vs infected untreated mice,lower degree of pulmonary pathology
same,B cells in the spleen and Ly6G+ neutrophils in the lung,[10]; Example 1,significantly higher expansion
same,CCR2 expression on alveolar macrophages,[10]; Example 1,reduced
same,CD86 on lung-resident macrophages,[10]; Example 1,increased
same,IL-10 and TGFβ produced by macrophages,[10]; Example 1,increased
same,Ki67 and MHCII on CD8 T cells immediately ex vivo,[10]; Example 1,upregulation
same,PD-L1 expression on macrophages,[10]; Example 1,lower levels
same,"frequency of B cells, cytotoxic NK cells and CD8 T cells",[10]; Example 1,increased frequency
same,"expression of activation markers CD80, CD86, PD-L1, MHC-II on lung alveolar and interstitial macrophages",[10]; Example 2,lower expression
same,"PD1, MHC-II and Ki-67 on lung CD8+ and CD4+ T cells, directly ex vivo","[10]; Example 2, P<0.05",significantly decreased
same,"frequencies of lung alveolar and interstitial macrophages producing IL-10, IL-1β, TNF-α, TGF-β","[10]; Example 2, P<0.05",significantly lower frequencies
same,infection-induced increase of IL-1β in alveolar macrophages,[10]; P<0.0001,abrogated
same,CPT1a+VDAC+ myeloid cells in lung,[10]; P=0.01,significantly decreased
same,percentage of monocytes and CD11c+ dendritic cells out of total CD45+ immune cells in the lungs,[10]; P=0.01,significantly decreased
same,IFN-γ and IL-10 from lung CD4+ T cells,[10]; [12],lower levels
same,frequency of IL-4 and IL-17 in CD4+ T cells,[10]; [12],not significantly altered
same,TNF-α in alveolar macrophages and IFN-γ in T cells,"[10]; mouse, in vivo",reduction
same,"recruitment of myeloid cells (monocytes, dendritic cells) into the lungs",[10]; vs infected untreated mice,significantly reduced
COC(=O)/C=C/C(=O)OC [dimethyl fumarate],replication of SARS-CoV-2 in vitro,[1],inhibited replication
